Data published in paper PMC2064136 (The Journal of Cell Biology, 2007).

Columns and labels:
[1] = tested on: Xenopus egg mitochondria (XEM); assay type: biochemical, Xenopus laevis; details: for concentration that protected XEM against at least 20 nM tBid: titrations in XEM supplemented with tBid (Fig. 5 A)
[2] = tested on: mouse liver mitochondria (MLM); assay type: biochemical
Bak = details: ref Willis et al., 2005; cited from earlier work
[3] = full-length Bcl-xL, tBid 2 h (Fig. 3)

Substance | concentration protecting XEM from tBid [1, 3] [nM] | concentration that protected XEM against at least 20 nM tBid [1] [nM] | concentration protecting MLM from tBid [2, 3] [nM] | binding to Bak (Bak) | loss of activity relative to full-length Bcl-xL in protecting MLM from tBid ([2]; MLM, tBid (Fig. 3 B)) | relative protection of XEM from different BH3 peptides ([1]; Fig. S4) | block of the permeabilizing effect of Bad, Bmf and Hrk BH3 peptides on MLM ([2]; MLM incubated as for XEM with mBad, Bmf, Hrk BH3 peptides (Fig. 4 B))
Bcl-xL: recombinant full-length human Bcl-xL | ~20 | 30 | ~20 | bind Bak |  |  | 
Bcl-xLΔC24: C-terminally truncated form of human Bcl-xL |  |  |  |  | 10–30 times |  | 
Mcl-1: recombinant mouse Mcl-1ΔN151ΔC11 with five additional N-terminal residues (GPLGS) |  | 300 |  | bind Bak |  | protected XEM better from the Bad than from the Bim or Puma peptides | also blocked
